In patent US20230212222A1 (ANYGEN CO., LTD., priority 2020, published 2023):
Square brackets hold non-standard residues; d marks the D form. Peptide text beside a SMILES is read from it. * marks the point of attachment. His(τ-CHPh2) = N[C@@H](Cc1cn(C(c2ccccc2)c2ccccc2)cn1)C(=O)O; Octanoyl = CCCCCCCC(=O)*

Key:
GPR39 [1] = biological target: T1, GPR39 (Homo sapiens, UniProt O43194)
T1 sequence (O43194 1-453): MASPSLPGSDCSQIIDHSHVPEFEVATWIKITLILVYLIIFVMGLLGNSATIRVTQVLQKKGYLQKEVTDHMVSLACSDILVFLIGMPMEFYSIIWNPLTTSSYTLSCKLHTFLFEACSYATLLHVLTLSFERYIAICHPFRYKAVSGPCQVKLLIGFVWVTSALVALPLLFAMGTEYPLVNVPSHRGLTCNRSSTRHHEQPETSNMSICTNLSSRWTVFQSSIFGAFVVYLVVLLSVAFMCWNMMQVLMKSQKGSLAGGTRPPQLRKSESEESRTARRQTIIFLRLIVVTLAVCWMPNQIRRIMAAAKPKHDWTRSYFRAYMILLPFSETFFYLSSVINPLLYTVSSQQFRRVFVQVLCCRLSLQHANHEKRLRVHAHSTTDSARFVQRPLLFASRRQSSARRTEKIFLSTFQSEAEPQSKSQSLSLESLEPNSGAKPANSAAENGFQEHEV
Experimental: (§1) Specifically, the fibroblast cell line CV-1 (1×10^5 cells/ml, Korea Cell Line Bank) was cultured in a 96 well cell culture plate for 24 hours, and then treated with GPR39 inserted into adenovirus and SRE (serum response element) luciferase at 50 MOI (multiplicity of infection) and 25 MOI virus for 3 hours, respectively, and then cultured for 24 hours.

GPR39 [2] = biological target: T1, GPR39; assay: luciferase assay system (SRE luciferase reporter gene) for GPR39 in CV-1 cells
Experimental: as §1

Structure (SMILES)	ECmax (-fold induction over basal) (GPR39 [1])	EC50 (GPR39 [2]; EC50, CV-1 cells, GPR39 and SRE luciferase adenovirus, treated 6 hours, luminometer)	activity level for GPR39 (in words) (GPR39 [2]; comment on Table 3)
CCCCCCCC(=O)NCCCC[C@H](NC(=O)[C@@H](N)Cc1cn(C(c2ccccc2)c2ccccc2)cn1)C(=O)N[C@@H](Cc1ccccc1)C(=O)N[C@@H](Cc1ccc(O)cc1)C(=O)O [HKFY-33, N2-(Nt-benzhydryl-L-histidyl)-N6-octanoyl-L-lysyl-L-phenylalanyl-L-tyrosine] (H-[His(τ-CHPh2)]K(Octanoyl)FY-OH)	20 ± 0.57 -fold induction over basal	150 ± 70 nM	
CCCCCCCC(=O)NCCCC[C@H](NC(=O)[C@@H](N)Cc1cn(C(c2ccccc2)c2ccc(O)cc2)cn1)C(=O)N[C@H](Cc1ccc(C)cc1)C(=O)N[C@@H](Cc1ccc(O)cc1)C(=O)O (stereo partly drawn) [HKFY-65, ((2R)-2-((2S)-2-((2S)-2-amino-3-(1-((4-hydroxyphenyl)(phenyl)methyl)-1H-imidazol-4-yl)propanamido)-6-octanamidohexanamido)-3-(p-tolyl)propanoyl)-L-tyrosine]	18.3 ± 2.2 -fold induction over basal		higher activity level than other HJKFY derivatives
